Results on 2 compounds are retold here after article PMC12276006, “Structural basis for sensitivity and acquired resistance of fungal cap guanine-N7 methyltransferases to the antifungal antibiotic sinefungin” (Nucleic Acids Research, 2025).

Assay [1] concerns recombinant S. cerevisiae Abd1. Conditions: cited from earlier work.
The next assay has as its target T1, ScAbd1WT (Saccharomyces cerevisiae, UniProt P32783).
T1 construct: aa 1–436); made in house; host or cells: Escherichia coli BL21 (DE3) CodonPlus RIL
Description: Inhibition of GpppA methylation by wild-type ScAbd1 (LC-MS/MS assay). Type of assay: biochemical. As to conditions: for IC50: ScAbd1WT 250 nM, 100 μM SAM, 250 μM GpppA, 30°C, 20 min. The procedure:
(§1) Reactions (50 μl) were performed in triplicate by incubating 250 nM cap methyltransferases with 100 μM SAM and 250 μM GpppA or 2 mM GTP at 30°C in a buffer consisting of 200 mM NaCl, 50 mM Tris–HCl (pH 8.2), and 5 mM βME. Samples (10 μl aliquots) were withdrawn at specified time points (KlAbd1s: 0, 2, 5, 10, and 15 min, Fig. 1A; ScAbd1s: 0, 5, 10, 15, and 20 min, Fig. 4A) and quenched with 10 μl of 100 mM H2SO4 and 50 μM L-tryptophan, and then stored at −80°C pending liquid chromatography-tandem mass spectrometry (LC–MS/MS) analyses.
(§2) The quenched samples were thawed and centrifuged at 4000 × g at 4°C for 30 min to pellet denatured protein and the supernatants were transferred to a 96-well plate for analysis. Methylation was measured via HPLC with detection by MS conducted on an Agilent 1200 HPLC system coupled with a 6490 QQQ (Agilent Technologies). Assay samples were separated on an InfinityLab Poroshell 120 HILIC-Z column (2.1 mm × 100 mm, 2.7 μm particle size; Agilent Technologies) equilibrated in NH4Ac buffer [A: 10% 10 mM NH4Ac, pH 9.0, and 500 μM methylene diphosphonic acid/90% acetonitrile (ACN); B: 90% 10 mM NH4Ac, pH 9.0, and 500 μM methylene diphosphonic acid/10% ACN] with a flow rate 400 μl/min. The eluents of the column were directed to an electrospray ion source, connected to the QQQ. Samples were analyzed by the QQQ using multiple reaction monitoring (MRM) in negative mode, which measures peak intensities of the product ions of m^7GpppA (785: 408, 620 m/z) or m^7GTP (536.0: 159.0, 371.0 m/z) and the internal standard, L-tryptophan (203: 116, 141.9 m/z). The resultant peak intensities were then integrated. L-Tryptophan was used as an internal standard to perform cross-sample analysis. The m^7GpppA or m^7GTP product ion integrated intensities were normalized to the integrated ion intensity of L-tryptophan, yielding the ISTD. […] ISTDs obtained from reaction samples quenched at specified time points were then used to interpolate either m^7GpppA or m^7GTP concentrations using the calibration curves and used for quantification. […]

The subject of assay [2] is ScAbd1 variants L59P-Y416C, Y416N-R422H, E124K-K163R-K311R-F387Y-Y416F and Y416A. Description: Inhibition of GpppA methylation, the four SFG-resistant ScAbd1 variants stated together. It counts as biochemical, Saccharomyces cerevisiae. As to conditions: versus wild-type ScAbd1. The procedure: as §1
(§3) The quenched samples were thawed and centrifuged at 4000 × g at 4°C for 30 min to pellet denatured protein and the supernatants were transferred to a 96-well plate for analysis. Methylation was measured via HPLC with detection by MS conducted on an Agilent 1200 HPLC system coupled with a 6490 QQQ (Agilent Technologies). […] Samples were analyzed by the QQQ using multiple reaction monitoring (MRM) in negative mode, which measures peak intensities of the product ions of m^7GpppA (785: 408, 620 m/z) or m^7GTP (536.0: 159.0, 371.0 m/z) and the internal standard, L-tryptophan (203: 116, 141.9 m/z). […] ISTDs obtained from reaction samples quenched at specified time points were then used to interpolate either m^7GpppA or m^7GTP concentrations using the calibration curves and used for quantification. […]

Assay [3] deals with human cap guanine-N7 methyltransferase RNMT. As to conditions: cited from earlier work.
Assay [4] addresses T2, ScAbd1-E124K-K163R-K311R-F387Y-Y416F (Saccharomyces cerevisiae, UniProt P32783, E124K/F387Y/K163R/K311R/Y416F).
T2 construct: aa 1–436); made in house; host or cells: Escherichia coli BL21 (DE3) CodonPlus RIL
Put plainly: Inhibition of GpppA methylation by ScAbd1-E124K-K163R-K311R-F387Y-Y416F. It counts as biochemical. As to conditions: ScAbd1-E124K-K163R-K311R-F387Y-Y416F 250 nM, 100 μM SAM, 250 μM GpppA, 30°C, 20 min. As for the experimental part: as §1, §3

The subject of assay [5] is S. cerevisiae and an S. cerevisiae strain complemented with Candida albicans capping enzymes. More on the design: method as in PMID 15964937, PMID 11035009. As to conditions: S. cerevisiae versus strain complemented with Candida albicans capping enzymes; cited from earlier work.
The test system of assay [6] is S. cerevisiae strain complemented with the mammalian capping apparatus. More on the design: method as in PMID 10347220. As to conditions: cited from earlier work.
Assay [7] relates to S. cerevisiae abd1Δ pABD1* pSAM3 strains. Put plainly: Spot test for growth of abd1Δ pSAM3 strains bearing ABD1 alleles on SFG-supplemented agar. Type of assay: cell-based, Saccharomyces cerevisiae. Conditions: 30°C. As for the experimental part:
A library of PCR-mutated ABD1 alleles (ABD1*) in a CEN TRP1 plasmid under the control of the ABD1 promoter was constructed as described. The pABD1* library DNA was transfected into S. cerevisiae strain abd1Δ pABD1 (CEN URA3 ABD1) pSAM3 (2µ HIS3 SAM3). Trp^+ His^+ transformants were selected and then plated to agar medium containing 5-fluoroorotic acid (FOA) to counter-select against the CEN URA3 ABD1 plasmid. FOA survivors were plated to Trp- His- agar plates (25 ml) to which 300 µl of a 2.5 or 5 µM solution of SFG had been applied. Colonies that grew well on SFG-containing plates were candidates for harboring SFG-resistant ABD1* alleles. To ascertain whether SFG-resistance was linked to ABD1, the plasmids were recovered from individual SFG-resistant strains and amplified clonally by transformation in E. coli. The pABD1* plasmid DNAs isolated from E. coli were transfected into S. cerevisiae abd1Δ pABD1 (CEN URA3 ABD1) pSAM3 (2µ HIS3 SAM3) strain. Trp^+ His^+ transformants were selected and plated to FOA for counterselection against the CEN URA3 ABD1 plasmid. The resulting abd1Δ pABD1* (CEN TRP1 ABD1*) pSAM3 (2µ HIS3 SAM3) strains were tested in parallel with a control abd1Δ pABD1 (CEN TRP1 ABD1) pSAM3 (2µ HIS3 SAM3) strain for growth on Trp- His- agar plates (25 ml) supplemented with SFG (300 µl of 0.63, 1.25, 2.5 and 5 µM SFG per plate). […]

In assay [8] the target is T3, KlAbd1 (K. lactis cap methyltransferase Abd1, wild-type) (Kluyveromyces lactis, UniProt Q6CKI0).
T3 construct: aa 1–426); His10-Smt3 (N, cleaved yes); made in house; host or cells: Escherichia coli BL21 (DE3) CodonPlus RIL
T3 sequence (Q6CKI0 whole entry, the tested form may be a part): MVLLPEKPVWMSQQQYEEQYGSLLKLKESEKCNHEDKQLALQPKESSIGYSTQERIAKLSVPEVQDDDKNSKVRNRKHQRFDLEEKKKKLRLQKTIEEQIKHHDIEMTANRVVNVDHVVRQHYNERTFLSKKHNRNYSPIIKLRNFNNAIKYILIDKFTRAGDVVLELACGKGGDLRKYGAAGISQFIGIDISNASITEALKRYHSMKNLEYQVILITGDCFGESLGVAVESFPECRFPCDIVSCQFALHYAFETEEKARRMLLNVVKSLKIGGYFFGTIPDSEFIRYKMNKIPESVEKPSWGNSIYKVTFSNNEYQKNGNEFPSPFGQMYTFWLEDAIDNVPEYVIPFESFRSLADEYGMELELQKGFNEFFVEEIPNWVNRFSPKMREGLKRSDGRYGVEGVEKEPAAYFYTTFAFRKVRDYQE
Description: Inhibition of GpppA methylation by KlAbd1 (LC-MS/MS assay). Type of assay: biochemical. As to conditions: for IC50: wild-type KlAbd1 250 nM, 100 μM SAM, 250 μM GpppA, 30°C, 10 min. As for the experimental part:
as §1, §2

The next assay deals with T4, ScAbd1-Y416A (Saccharomyces cerevisiae, UniProt P32783, Y416A).
T4 construct: aa 1–436); made in house; host or cells: Escherichia coli BL21 (DE3) CodonPlus RIL
T4 sequence (P32783 whole entry Y416A, the tested form may be a part): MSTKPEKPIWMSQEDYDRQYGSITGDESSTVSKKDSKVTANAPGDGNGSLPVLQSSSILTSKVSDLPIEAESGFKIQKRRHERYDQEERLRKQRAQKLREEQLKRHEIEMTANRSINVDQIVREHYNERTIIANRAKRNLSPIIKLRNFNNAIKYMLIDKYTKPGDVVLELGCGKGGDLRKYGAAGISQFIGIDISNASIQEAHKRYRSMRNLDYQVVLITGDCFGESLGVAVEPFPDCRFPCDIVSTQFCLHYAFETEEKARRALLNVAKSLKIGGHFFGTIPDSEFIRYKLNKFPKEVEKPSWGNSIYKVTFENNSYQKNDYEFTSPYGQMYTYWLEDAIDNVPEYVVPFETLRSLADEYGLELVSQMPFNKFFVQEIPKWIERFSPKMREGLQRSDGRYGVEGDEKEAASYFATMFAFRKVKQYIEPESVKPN
Description: Inhibition of GpppA methylation by ScAbd1-Y416A. It counts as biochemical. As to conditions: ScAbd1-Y416A 250 nM, 100 μM SAM, 250 μM GpppA, 30°C, 20 min. As for the experimental part: as §1, §3

The target of a further assay is T5, ScAbd1-L59P-Y416C (Saccharomyces cerevisiae, UniProt P32783, L59P/Y416C).
T5 construct: aa 1–436); made in house; host or cells: Escherichia coli BL21 (DE3) CodonPlus RIL
T5 sequence (P32783 whole entry L59P/Y416C, the tested form may be a part): as the sequence (P32783 whole entry Y416A, the tested form may be a part) above, with L59P, A416C counted along it
Put plainly: Inhibition of GpppA methylation by ScAbd1-L59P-Y416C. It counts as biochemical. As to conditions: ScAbd1-L59P-Y416C 250 nM, 100 μM SAM, 250 μM GpppA, 30°C, 20 min. As for the experimental part: as §1, §3

In another assay the test system is Ecm1. As to conditions: methylation of GTP by Ecm1 in the presence of 5 μM SAM; cited from earlier work.
For another assay, the target named is T6, ScAbd1-Y416N-R422H (Saccharomyces cerevisiae, UniProt P32783, R422H/Y416N).
T6 construct: aa 1–436); made in house; host or cells: Escherichia coli BL21 (DE3) CodonPlus RIL
T6 sequence (P32783 whole entry Y416N/R422H, the tested form may be a part): as the sequence (P32783 whole entry Y416A, the tested form may be a part) above, with A416N, R422H counted along it
Description: Inhibition of GpppA methylation by ScAbd1-Y416N-R422H. It counts as biochemical. As to conditions: ScAbd1-Y416N-R422H 250 nM, 100 μM SAM, 250 μM GpppA, 30°C, 20 min; read-out: SAH IC50. As for the experimental part: as §1, §3

“And” between values parts separate entries of the source, which are not always exact repeats. Equal values may be shown once. Read-outs that look alike come from different tables or passages of the source.

T1 sequence (P32783 whole entry, the tested form may be a part): as the sequence (P32783 whole entry Y416A, the tested form may be a part) above, with A416Y counted along it
T2 sequence (P32783 whole entry E124K/K163R/K311R/F387Y/Y416F, the tested form may be a part): as the sequence (P32783 whole entry Y416A, the tested form may be a part) above, with E124K, K163R, K311R, F387Y, A416F counted along it

The IC50 is the concentration that gives 50% inhibition. Take `Nc1ncnc2c1ncn2[C@@H]1O[C@H](C[C@@H](N)CC[C@H](N)C(=O)O)[C@@H](O)[C@H]1O` [SFG, sinefungin]: the IC50 in [1] (S. cerevisiae Abd1 in vitro, GpppA, read-out: apparent IC50 of SFG) is 0.024 µM; at ScAbd1WT (read-out: SFG IC50), 0.065 µM and 0.0651 µM; in [4] (read-out: SFG IC50), 1.47 ± 0.0677 µM; in assay [8] (read-out: apparent IC50 of SFG), 0.0521 ± 0.0131 µM; at ScAbd1-Y416A (read-out: SFG IC50), 1.47 ± 0.077 µM; at ScAbd1-L59P-Y416C (read-out: SFG IC50), 1.35 ± 0.0699 µM. Besides, the IC50 in the assay with Ecm1 is 1.5 µM. For the same compound, the “tighter binding of SFG than of SAM or SAH” value in assay [1] (ScAbd1) is on record as “up to 900 fold”. The “potency of SFG versus SAH” value in assay [1] (methylation of GpppA by recombinant S. cerevisiae Abd1) is reported as 900 fold. In addition, the “sensitivity/affinity for SFG versus SAH (ratio of IC50 values)” value at ScAbd1WT (wild-type ScAbd1, GpppA substrate) turned out to be 485 fold. For the same compound, the “increase of the IC50 for SFG in the SFG-resistant mutants” value in assay [2] is on record as 20 fold. In addition, the “IC50 of SFG lower than that of SAH” value in assay [3] is reported as 130 fold. Further, the “potency of growth inhibition, comparison of the two strains” value in [5] is reported as “equal potency”. The “potency of growth inhibition relative to S. cerevisiae with fungal capping system” value in [6] is on record as “five-fold less potent”. For the same compound, in assay [7] (single ABD1-Y416A mutation, abd1Δ pSAM3 (2μ HIS3 SAM3) strain background, agar), the “SFG resistance of growth” value is listed as “sufficed to confer SFG resistance”. The “sensitivity to growth inhibition by SFG” value in assay [7] (three ABD1* strains (L59P-Y416C, Y416N-R422H, E124K-K163R-K311R-F387Y-Y416F) versus isogenic wild-type ABD1, Trp- His- agar) is listed as “less sensitive to growth inhibition by SFG than the isogenic wild-type ABD1 strain”. In assay [8] (KlAbd1, GpppA substrate), the “potency of SFG versus SAH (ratio of the IC50 values)” value is 240 fold.
`Nc1ncnc2c1ncn2[C@@H]1O[C@H](CSCC[C@H](N)C(=O)O)[C@@H](O)[C@H]1O` [SAH, S-adenosylhomocysteine]: the IC50 was 21 µM in [1] (methylation of GpppA by recombinant S. cerevisiae Abd1, read-out: IC50 of SAH); 31.6 ± 6.8 µM on ScAbd1WT (read-out: SAH IC50); 35.6 ± 2.6 µM in assay [4] (read-out: SAH IC50); 12.3 ± 4.1 µM in [8] (read-out: IC50 of SAH); 16.4 ± 2.6 µM on ScAbd1-Y416A (read-out: SAH IC50); 33.5 ± 2.3 µM on ScAbd1-L59P-Y416C (read-out: SAH IC50). For the same compound, the values for the IC50 on ScAbd1-Y416N-R422H and in the assay with Ecm1 were 29.7 ± 4.7 µM and 4 µM, respectively.
